Test results published in paper PMC10483525, “Synthesis, Structural Investigations, DNA/BSA Interactions, Molecular Docking Studies, and Anticancer Activity of a New 1,4-Disubstituted 1,2,3-Triazole Derivative” (ACS Omega, 2023).

Tests used:
[1] = target: T1, BSA (bovine serum albumin) (Bos taurus, UniProt P02769); assay: BSA fluorescence quenching; type: binding; details: for Kq (bimolecular quenching constant): Ksv = kqτ0, τ0 10 ns; for ΔG: van't Hoff equation from Kbin, BSA binding
T1 construct: purchased Merck/Sigma
Experimental: BSA fluorescence spectral studies of the compound and related calculations were the same as those performed for the [CT-DNA + EB] quenching method described in Section 4.5. Detailed experimental procedures and the calculations of the binding data are given in the SI. […]
The quenching efficiency of the compound was analysed using the Stern-Volmer equation.
Io/I = 1 + K sv[Q] = 1 + k qτ0[Q] […]
where I o and I are the emission intensities of CT-DNA+EB complex in the absence and each […]
addition of compound, respectively and [Q] is the concentration of quencher. The Stern-Volmer […]
(quenching) constant, K sv was determined from the slope of the linear plot of I o/I versus [Q].
To have an insight into the kinetics of the competitive binding process, the bimolecular […]
quenching rate constant, k q values were also computed using the Stern-Volmer equation. […]
where n is the number of binding sites per nucleotide. 8
Fluorescence Spectral Studies
Quenching of fluorescence emission of BSA by compound was performed in order to determine […]
its binding constant. Stock concentration of BSA (5 μM) was prepared in 10 mM Tris- HCl […]
buffer at pH = 7.4. The emission spectra of 5 μM BSA solutions in the absence and presence of […]
compound of concentration ranging from 0 to 8 μM were acquired at room temperature. The […]
emission changes were recorded in the λ em range of 300 to 450 nm, with the excitation wavelength set at 280 nm. Each spectrum was recorded after an incubation time of 10 minutes.
The quenching efficiency of the compound was calculated using the Stern-Volmer equation as discussed above. The Stern-Volmer (quenching) constant, K sv was determined from the slope of the linear plot of I o/I versus [Q]. To have an insight into the kinetics of the competitive binding process, the bimolecular quenching rate constant, k q values were also computed using the same Stern Volmer equation, where τ 0 is the average fluorescence lifetime of the BSA alone is 10 nanoseconds. 9 Scatchard plots also gave the binding constant K bin as determined from the fluorescence titration using Scatchard equation. 10 The standard Gibbs free (ΔG) of compound

LNCaP = assay: MTT assay; type: cell-based, human; details: for IC50: Homo sapiens, LNCaP
Experimental: (§1) Human cancer cell lines (MDA-MB-231, LNCaP, Caco-2) and a human healthy cell line (HEK-293) were obtained from the European Collection of Cell Cultures. The cells were incubated in a humidified incubator (37 °C, 5% CO2) and cultured under standard conditions in Dulbecco’s modified Eagle medium (DMEM), 10% heat-inactivated fetal bovine serum, 100 U mL^–1 penicillin, 100 U mL^–1 streptomycin, and 4 mM L-glutamine. […] A cell culture medium was used to make further dilutions, while keeping the equivalent of DMF below 0.5% of the total volume.[94] […]
(§2) 7. Cell Viability Inhibition Assay
(§3) MDA-MB-231, LNCaP, Caco-2 and HEK-293 cells (5x10^3 per well) seeded in 96-well plates to assess cell viability by the 3-[4,5-dimethylthiazol-2-yl]-2,5-diphenyltetrazolium bromide (MTT) assay for 24 h at 37°C. Then cells were treated with compound 3 at different concentrations (3-100 µM) at 100μl/well. In parallel, the traditional anticancer agent cisplatin and etoposid was used as positive controls under identical conditions. After 24, 48 and 72 h incubation, 5 mg/ml MTT solution (20 μl/well) was added and cultured for another 4 h. Then, the supernatant was discarded and dimethyl sulfoxide was added (100 μl/well). The absorbance (A) was measured spectrophotometrically at 540 nm by a Microplate Reader (SpectraMax i3x).
(§4) A graph was plotted between the concentrations of the extract versus the percent viability. The […]
(§5) calculated from graph. All assays were performed in three replicates per concentration level. 11 […]

MDA-MB-231 = assay: MTT assay; type: cell-based, human; details: for IC50: Homo sapiens
Experimental: as §1, §2, §3, §4, §5

HEK-293 = assay: MTT assay; type: cell-based, human; details: Homo sapiens, HEK293
Experimental: as §1, §2, §3, §4, §5

Caco-2 cells = assay: MMP determination (TMRE, flow cytometry); type: cell-based, human; details: Caco-2, 48 h, 7.5, 15, 30 μM
Experimental: Briefly, Caco-2 (5x10^5 per well) were seeded in 6-well plates for 24 h and either untreated or treated with a various concentrations of compound 3 (7.5, 15, 30 μM) for addional 48 h.
Following treatment, cells were harvested and were incubated with 50 nM BD PharmingenTM MitoStatus TMRE for 30 min at 37°C, 5% CO2, followed by resuspending twice with pre-warmed PBS (2000 rpm×3 min). Quantitative changes in mitochondrial membrane potential (MMP) at the early stage of cell apoptosis were measured using BD PharmingenTM MitoStatus TMRE (BD Biosciences, San Jose, CA, USA) and detected by flow cytometry (BD

Caco-2 = assay: MTT assay; type: cell-based, human; details: for IC50: Homo sapiens
Experimental: as §1, §2
MDA-MB-231, LNCaP, Caco-2 and HEK-293 cells (5x10^3 per well) seeded in 96-well plates to assess cell viability by the 3-[4,5-dimethylthiazol-2-yl]-2,5-diphenyltetrazolium bromide (MTT) assay for 24 h at 37°C. Then cells were treated with compound 3 at different concentrations (3-100 µM) at 100μl/well. […]
and etoposid was used as positive controls under identical conditions. After 24, 48 and 72 h incubation, 5 mg/ml MTT solution (20 μl/well) was added and cultured for another 4 h. Then, the supernatant was discarded and dimethyl sulfoxide was added (100 μl/well). The absorbance (A) was measured spectrophotometrically at 540 nm by a Microplate Reader (SpectraMax i3x).
as §4, §5

[2] = 48 h, SI = IC50 on normal cells/IC50 on cancer cells

T1 sequence (P02769 25-607): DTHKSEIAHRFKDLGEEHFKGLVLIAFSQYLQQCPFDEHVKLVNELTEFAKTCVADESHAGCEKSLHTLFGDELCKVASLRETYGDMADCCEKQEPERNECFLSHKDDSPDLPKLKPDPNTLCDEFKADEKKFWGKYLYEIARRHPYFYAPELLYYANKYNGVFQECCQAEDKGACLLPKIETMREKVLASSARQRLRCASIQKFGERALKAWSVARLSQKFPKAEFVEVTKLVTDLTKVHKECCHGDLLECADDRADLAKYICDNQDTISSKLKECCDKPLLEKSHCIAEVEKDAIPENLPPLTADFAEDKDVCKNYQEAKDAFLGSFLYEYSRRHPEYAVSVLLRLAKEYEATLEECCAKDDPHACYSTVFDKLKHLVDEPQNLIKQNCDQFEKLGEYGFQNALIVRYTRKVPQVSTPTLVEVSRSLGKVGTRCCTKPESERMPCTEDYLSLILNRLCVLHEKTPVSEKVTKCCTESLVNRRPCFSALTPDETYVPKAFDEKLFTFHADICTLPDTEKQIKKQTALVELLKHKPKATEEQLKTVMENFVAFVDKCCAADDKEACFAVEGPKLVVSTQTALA

For `O=Cc1ccc(OCc2cn(-c3ccc(Cl)c(Cl)c3)nn2)cc1O` [Compound 3, 4-((1-(3,4-Dichlorophenyl)-1H-1,2,3-triazol-4-yl)methoxy)-2-hydroxybenzaldehyde], which “quenching of BSA fluorescence intensity at ∼345 nm” value ([1]; BSA 5 μM, compound 0 to 8 μM) is on record?
The value was 69.12%.

What about the “red shift of BSA emission” value ([1]; BSA 5 μM, compound 0 to 8 μM) of the same molecule?
The value was 5 nm.

And the “Ksv (Stern–Volmer quenching constant)” value ([1]; BSA 5 μM, compound 0–8 μM, λex 280 nm)?
Its value is 1.99 × 10^5 M^–1.

And the “Kq (bimolecular quenching constant)” value ([1]; BSA)?
Its value is 1.99 × 10^13 M^–1·s^–1.

What about the “Kq (bimolecular quenching constant)” value ([1]; BSA, listed as compound 3) of the same molecule?
Its value is ~10^13 M^–1·s^–1.

And the “n (number of binding sites)” value ([1]; Scatchard equation, BSA)?
The value was 0.80.

What about the Kd ([1]; Scatchard equation, BSA 5 μM, read-out: Kbin (binding constant) (converted)) of the same molecule?
The Kd was 45.9 µM.

And the ΔG [1]?
The ΔG was “–24.75 kJ·mol^–1”.

And the ΔG ([1]; listed as compound 3)?
The ΔG was −24.75 kJ·mol^–1.

And the SI HEK-293/LNCap (LNCaP; [2])?
Its SI HEK-293/LNCap is 1.43.

What about the IC50 (LNCaP; 24 h) of the same molecule?
Its IC50 is 44.82 ± 0.09 µM.

And the IC50 (LNCaP; 48 h)?
Its IC50 is 17.1 ± 0.26 µM.

And the IC50 (LNCaP; 72 h)?
The IC50 was 10.05 ± 0.03 µM.

What about the “SI, times higher than cisplatin” value (LNCaP; LNCap cells) of the same molecule?
The value was 8 times.

What about the SI HEK-293/MDA-MB-231 (MDA-MB-231; [2]) of the same molecule?
Its SI HEK-293/MDA-MB-231 is 2.3.

And the IC50 (MDA-MB-231; MDA-MB-231, 24 h)?
Its IC50 is 65.03 ± 0.31 µM.

And the IC50 (MDA-MB-231; MDA-MB-231, 48 h)?
The IC50 was 10.64 ± 0.03 µM.

What about the IC50 (MDA-MB-231; MDA-MB-231, 72 h) of the same molecule?
The IC50 was 8.39 ± 0.04 µM.

And the IC50 (HEK-293; HEK-293, 24 h)?
The IC50 was 43.95 ± 0.2 µM.

What about the IC50 (HEK-293; HEK-293, 48 h) of the same molecule?
Its IC50 is 24.44 ± 0.13 µM.

And the IC50 (HEK-293; HEK-293, 72 h)?
Its IC50 is 17.09 ± 0.08 µM.

What about the “loss of mitochondrial membrane potential (MMP)” value (Caco-2 cells) of the same molecule?
The value was “significant increase in MMP loss”.

What about the SI HEK-293/Caco-2 (Caco-2; [2]) of the same molecule?
The SI HEK-293/Caco-2 was 1.46.

What about the “SI, times higher than cisplatin” value (Caco-2; Caco-2 cells) of the same molecule?
The value was 10 times.

What about the IC50 (Caco-2; Caco-2, 24 h) of the same molecule?
Its IC50 is 31.7 ± 0.34 µM.

What about the IC50 (Caco-2; Caco-2, 48 h) of the same molecule?
Its IC50 is 16.6 ± 0.27 µM.

What about the IC50 (Caco-2; Caco-2, 72 h) of the same molecule?
Its IC50 is 11.77 ± 0.01 µM.
